Data published in patent publication US11534457B2, “Use of dextran sulfate” (priority 2017, dated 2022).

Test system: human Schwann cells
Assay: Gene expression array and pathway analysis, Schwann cells
Type: cell-based
Description: For each cell line, n=8×25 cm^2 culture flasks were set up. Two flasks were harvested for each cell type on the day of treatment (24 hours after seeding). This represents the Day0 time point. From the remaining flasks, three flasks were treated with Control Medium and three were treated with Culture Medium (CM) containing LMW-DS to give a final concentration of 0.01 mg/ml. Cells from the treated flasks were collected after 48 hours. Therefore the collected data represent (a) untreated cells (Day0 Controls and Day2 Controls) and (b) cells treated with LMW-DS for 48 hours (Day2 LMW-DS treated).
25 cm^2 flasks were coated by adding 2 ml per flask of a solution of 50 μg/ml poly-d-lysine in Hank's balanced salt solution (HBSS) and incubating overnight at 37° C. in the dark. Flasks were washed with cell culture water and air-dried for 30 min in the dark. Flasks were coated by adding 1 ml per flask of a solution of 25 μg/ml laminin in phosphate-buffered saline (PBS) and incubating for 2 hour at 37° C. in the dark. The laminin flasks were washed with PBS three times before plating cells.
Schwann cells growth medium was prepared by adding 10% of fetal bovine serum (FBS) to high-glucose DMEM and pre-warmed to 37° C. Cells were thawed in a 37° C. water bath for no longer than 2 min.
Cells from 12 vials were each gently transferred to a tube containing 10 ml of high-glucose DMEM medium and centrifuged at 400 relative centrifugal field (RCF) for 10 min. Pellet was resuspended in culture medium. The cells from the 12 vials were mixed and distributed equally into the previously coated 25 cm^2 flasks (n=8). Cells were incubated at 37° C. with 5% CO2. Cells were allowed to settle for 24 hours before LMW-DS treatment.
LMW-DS was provided at a stock concentration of 20 mg/ml and was kept in a temperature monitored refrigerator at 4° C. A fresh […]LMW-DS stock (1.0 mg/ml) was prepared in sterile DMEM-F12. The concentrated drug stock was sterile filtered and added to the respective culture media (19.6 ml CM and 0.4 ml LMW-DS stock solution). The Control was made using 19.6 ml CM and 0.4 ml of DMEM-F12. LMW-DS and CM were added to the respective flasks (5 ml each) to reach the 0.01 mg/ml concentration of LMW-DS in each dish with a total of 10 ml CM each.
CM was aspirated into a clean and labelled 15 ml Falcon tube. The flasks (without culture medium) were placed into the −80° C. freezer for 30 minutes. The CM in the Falcon tubes were spun at 3000×g for 5 minutes. Supernatant was removed and the small pellet was re-suspended in 2.5 ml Trizol:Water (4:1) solution at room temperature (RT, […]).
Two aliquots of 1 ml lysate was removed from each sample and 200 μl of chloroform was added to each (0.2 ml of chloroform per 1 ml of TRIzol Reagent used during the cell lysis step) and the tube was shaken vigorously. Samples were stored at RT for 2-3 minutes and subsequently centrifuged at 12,000×g for 15 minutes at 4° C.
The expression data were downloaded into separate files for each cell line. The ‘Background corrected’ expression is the data from the “gProcessedSignal” of the arrays that is the result of the background signal extracted from the actual signal of the relevant probe. This is the most often used variable in array analysis. The background corrected signal was log 2 transformed for all samples for statistical analysis. To reduce the false discovery rate in the samples, the signals that were below ‘expression level’ were removed. The ‘below expression’ level was set at 5 for the log 2 transformed expression values.
Based on the expression pattern of the Control probes on each array it was decided to carry out Median Centering for all arrays before analysis to reduce the variability of the results. […]

low molecular weight dextran sulfate [LMW-DS]
Complex III (cytochrome bc1), mitochondrial oxidative stress pathway (0.01 mg/ml, 48 h): inhibited | TGFβ-induced effect in adhesion of immune cells, activation and aggregation of cells, fibrosis, self-activation of TGFβ (0.01 mg/ml, 48 h): totally abolished | activity and/or levels of glutamate transporters, in particular SLC1A2/3 (0.01 mg/ml, 48 h): increased | aggregate effect on pathways regulating cell movement and attachment (17 molecules) (0.01 mg/ml, 48 h): cell adhesion would be inhibited while cell movement would be activated | cellular attachment from attachment-related molecules (17 differentially expressed) (0.01 mg/ml, 48 h): overall slightly increased attachment | expression of protein complex (CALM, Gβγ, GRM7, PICK1) (0.01 mg/ml, 48 h): induced the expression | number of genes differentially expressed, D0 control vs D2 LMW-DS treated (0.01 mg/ml, 48 h): 1244 genes | number of genes differentially expressed, D2 control vs D2 LMW-DS treated (0.01 mg/ml, 48 h): 700 genes | number of genes: abolished nutrient effect / no effect (0.01 mg/ml, 48 h): 21 | number of genes: abolished nutrient effect / significant downregulation (0.01 mg/ml, 48 h): 1 | number of genes: abolished nutrient effect / significant upregulation (0.01 mg/ml, 48 h): 13 | number of genes: abolished nutrient effect / total (0.01 mg/ml, 48 h): 35 | number of genes: enhanced response to nutrients / significant downregulation (0.01 mg/ml, 48 h): 122 | number of genes: enhanced response to nutrients / significant upregulation (0.01 mg/ml, 48 h): 441 | number of genes: enhanced response to nutrients / total (0.01 mg/ml, 48 h): 563 | number of genes: new effect induced by LMW-DS / significant downregulation (0.01 mg/ml, 48 h): 352 | number of genes: new effect induced by LMW-DS / significant upregulation (0.01 mg/ml, 48 h): 74 | number of genes: new effect induced by LMW-DS / total (0.01 mg/ml, 48 h): 426 | number of genes: not different from control / significant downregulation (0.01 mg/ml, 48 h): 42 | number of genes: not different from control / significant upregulation (0.01 mg/ml, 48 h): 373 | number of genes: not different from control / total (0.01 mg/ml, 48 h): 415 | number of genes: total / no effect (0.01 mg/ml, 48 h): 21 | number of genes: total / significant downregulation (0.01 mg/ml, 48 h): 517 | number of genes: total / significant upregulation (0.01 mg/ml, 48 h): 901 | number of genes: total / total (0.01 mg/ml, 48 h): 1439 | upstream regulator ANGPT2: activation z-score (D2 LMW-DS treatment): 1.283 | upstream regulator ANGPT2: predicted activation state relative D2 control (D2 LMW-DS treatment): Activated | upstream regulator BMP2: activation z-score (D2 LMW-DS treatment): 1.395 | upstream regulator BMP2: predicted activation state relative D2 control (D2 LMW-DS treatment): Activated | upstream regulator BMP4: activation z-score (D2 LMW-DS treatment): 0.927 | upstream regulator BMP4: predicted activation state relative D2 control (D2 LMW-DS treatment): Activated | upstream regulator BMP7: activation z-score (D2 LMW-DS treatment): 1.86 | upstream regulator BMP7: predicted activation state relative D2 control (D2 LMW-DS treatment): Activated | upstream regulator EGF: activation z-score (D2 LMW-DS treatment): 2.059 | upstream regulator EGF: predicted activation state relative D2 control (D2 LMW-DS treatment): Activated | upstream regulator FGF2: activation z-score (D2 LMW-DS treatment): 2.37 | upstream regulator FGF2: predicted activation state relative D2 control (D2 LMW-DS treatment): Activated | upstream regulator GDF2: activation z-score (D2 LMW-DS treatment): 2.561 | upstream regulator GDF2: predicted activation state relative D2 control (D2 LMW-DS treatment): Activated | upstream regulator HGF: activation z-score (D2 LMW-DS treatment): 1.432 | upstream regulator HGF: predicted activation state relative D2 control (D2 LMW-DS treatment): Activated | upstream regulator IGF1: activation z-score (D2 LMW-DS treatment): 1.332 | upstream regulator IGF1: predicted activation state relative D2 control (D2 LMW-DS treatment): Activated | upstream regulator NRG1: activation z-score (D2 LMW-DS treatment): 1.768 | upstream regulator NRG1: predicted activation state relative D2 control (D2 LMW-DS treatment): Activated | upstream regulator NRTN: activation z-score (D2 LMW-DS treatment): 0.958 | upstream regulator NRTN: predicted activation state relative D2 control (D2 LMW-DS treatment): Activated | upstream regulator PGF: activation z-score (D2 LMW-DS treatment): 0.254 | upstream regulator PGF: predicted activation state relative D2 control (D2 LMW-DS treatment): Activated | upstream regulator TGFβ1: activation z-score (D2 LMW-DS treatment): 1.05 | upstream regulator TGFβ1: predicted activation state relative D2 control (D2 LMW-DS treatment): Less inhibited | upstream regulator VEGFA: activation z-score (D2 LMW-DS treatment): 3.4 | upstream regulator VEGFA: predicted activation state relative D2 control (D2 LMW-DS treatment): Activated | upstream regulator WISP2: activation z-score (D2 LMW-DS treatment): -0.896 | upstream regulator WISP2: predicted activation state relative D2 control (D2 LMW-DS treatment): Less inhibited
